This note sets out measurements from patent publication US20170022201A1, “MACROCYLIC PYRIDINE DERIVATIVES” (Janssen Pharmaceutica NV, priority 2014, published 2017).

One assay addresses T1, eEF2K (Homo sapiens, UniProt O00418).
T1 construct: in the immortalized epithelial breast cell lines, MCF10A; host or cells: MCF10A immortalized breast epithelial cells
T1 sequence (O00418 1-725): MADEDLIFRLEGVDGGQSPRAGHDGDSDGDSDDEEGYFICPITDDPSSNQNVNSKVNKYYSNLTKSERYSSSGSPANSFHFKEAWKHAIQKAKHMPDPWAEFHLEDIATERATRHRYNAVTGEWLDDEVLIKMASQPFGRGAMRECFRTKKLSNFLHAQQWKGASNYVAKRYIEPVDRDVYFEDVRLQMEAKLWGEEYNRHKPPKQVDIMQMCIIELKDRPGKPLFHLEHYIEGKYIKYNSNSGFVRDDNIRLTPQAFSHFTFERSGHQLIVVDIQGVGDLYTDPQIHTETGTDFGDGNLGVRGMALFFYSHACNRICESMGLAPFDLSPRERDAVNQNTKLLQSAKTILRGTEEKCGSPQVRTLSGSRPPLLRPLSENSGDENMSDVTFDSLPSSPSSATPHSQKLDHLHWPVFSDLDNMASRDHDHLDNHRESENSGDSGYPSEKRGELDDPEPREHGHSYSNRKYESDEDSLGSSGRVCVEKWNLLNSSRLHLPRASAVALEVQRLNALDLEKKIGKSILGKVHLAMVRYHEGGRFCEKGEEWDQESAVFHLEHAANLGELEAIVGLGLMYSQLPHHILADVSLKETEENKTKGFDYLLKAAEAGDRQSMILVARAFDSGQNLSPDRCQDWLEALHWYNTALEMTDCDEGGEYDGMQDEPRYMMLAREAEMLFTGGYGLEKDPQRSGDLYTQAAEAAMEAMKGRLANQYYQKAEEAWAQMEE
The assay is described as follows: EF2K cell-based assay (P-EF2 AlphaLISA, 2-deoxyglucose stimulated MCF10A cells). To be noted: 2.5 mM 2-deoxyglucose 4 h, phosphorylation of EF2 at Thr 56, pIC50 = -log IC50 (M); for IC50: read-out: eEF2K_C_PThr56 pIC50 (converted). An outline of the steps:
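MCF10A cells pretreated with compound for 1 h, then stimulated with 2.5 mM 2-deoxyglucose for 4 h to deplete ATP and activate AMPK. Phospho-EF2 in lysates measured by AlphaLISA.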
For orientation: In Alpha technology, singlet oxygen from a donor bead excites a nearby acceptor bead.

Another assay deals with PIK3C3 lipid kinase (Homo sapiens, UniProt Q8NEB9). In words: Biochemical Vps34 lipid kinase assay (ADP-Glo). To be noted: 20 μM ATP; for remaining activity at 1 µM: 1 h, read-out: VPS34_1microM_%ofcntrl; for remaining activity at 1 µM / VPS34_1microM_%ofcntrl: single dose 1 μM, residual activity compared to control (DMSO); for IC50: serial dilution 10 μM to 0.3 nM, pIC50 = -log IC50 (M). As to the method: A non-radiometric kinase assay (ADP-Glo™ Assay, Promega, Madison, Wi, USA) was used for measuring the kinase activity of the PIK3C3 lipid kinase. All kinase assays were performed in 96-well half-area microtiter plates in a 25 μl reaction volume. The reaction cocktail was pipetted in 3 steps in the following order: • 10 μl of ATP solution (in assay buffer, see below) • 5 μl of test sample in 5% DMSO 10 μl of enzyme/substrate mixture
All lipid kinase assays contained 50 mM HEPES (4-(2-hydroxyethyl)-1-piperazineethanesulfonic acid)—NaOH, pH 7.5, 1 mM EGTA ((ethylene glycol tetraacetic acid), 100 mM NaCl, 0.03% CHAPS (3-[(3-Cholamidopropyl) dimethylammonio]-1-propanesulfonate), 2 mM DTT (Dithiothreitol), 20 μM ATP (corresponding to the apparent ATP-Km), kinase (7.6 nM) and substrate (50 μM). The assay for PIK3C3 additionally contained 3 mM MnCl2.
The reaction cocktails were incubated at 30° C. for 60 minutes. The reaction was stopped with 25 μl ADP-Glo™ reagent per well. Plates were incubated for 40 minutes at room temperature, followed by addition of 50 μl kinase detection reagent per well and incubation for 60 minutes at room temperature. Signal was determined with a microplate luminescence reader (Victor, Perkin Elmer). The assay was either performed using a single dose of compound (1 μM final concentration in the assay reaction) with resulting data expressed as residual activity compared to control (DMSO), or using a serial (half-log) dilution of compounds starting at 10 μM and down to 0.3 nM (final concentrations in the assay) with data expressed as the pIC50.

A further assay has as its target T2, EF2K (Homo sapiens, UniProt O00418).
T2 construct: host or cells: LN-229 glioblastoma cell lysate
T2 sequence (O00418 1-725): T1 sequence (O00418 1-725)
The assay is described as follows: Biochemical EF2K lysate-based kinase assay (AlphaLISA p-eEF2 Thr56). To be noted: LN-229 cell lysates, 10 mM ATP, pH 6.6; pIC50 = -log IC50 (M); read-out: eEF2K_C_alphalisa pIC50 (converted). The essentials:
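LN-229 glioblastoma lysate supplied both EF2K and eEF2 substrate; compound incubated with lysate 15 minutes at room temperature at pH 6.6 with 10 mM Mg2+ and 10 mM ATP, then stopped with excess EDTA. Thr56-phosphorylated eEF2 detected by sandwich AlphaLISA, final read after overnight standing.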

A value given as a limit tells only on which side of the number the result lay.

Sequence of PIK3C3 lipid kinase (Q8NEB9 whole entry): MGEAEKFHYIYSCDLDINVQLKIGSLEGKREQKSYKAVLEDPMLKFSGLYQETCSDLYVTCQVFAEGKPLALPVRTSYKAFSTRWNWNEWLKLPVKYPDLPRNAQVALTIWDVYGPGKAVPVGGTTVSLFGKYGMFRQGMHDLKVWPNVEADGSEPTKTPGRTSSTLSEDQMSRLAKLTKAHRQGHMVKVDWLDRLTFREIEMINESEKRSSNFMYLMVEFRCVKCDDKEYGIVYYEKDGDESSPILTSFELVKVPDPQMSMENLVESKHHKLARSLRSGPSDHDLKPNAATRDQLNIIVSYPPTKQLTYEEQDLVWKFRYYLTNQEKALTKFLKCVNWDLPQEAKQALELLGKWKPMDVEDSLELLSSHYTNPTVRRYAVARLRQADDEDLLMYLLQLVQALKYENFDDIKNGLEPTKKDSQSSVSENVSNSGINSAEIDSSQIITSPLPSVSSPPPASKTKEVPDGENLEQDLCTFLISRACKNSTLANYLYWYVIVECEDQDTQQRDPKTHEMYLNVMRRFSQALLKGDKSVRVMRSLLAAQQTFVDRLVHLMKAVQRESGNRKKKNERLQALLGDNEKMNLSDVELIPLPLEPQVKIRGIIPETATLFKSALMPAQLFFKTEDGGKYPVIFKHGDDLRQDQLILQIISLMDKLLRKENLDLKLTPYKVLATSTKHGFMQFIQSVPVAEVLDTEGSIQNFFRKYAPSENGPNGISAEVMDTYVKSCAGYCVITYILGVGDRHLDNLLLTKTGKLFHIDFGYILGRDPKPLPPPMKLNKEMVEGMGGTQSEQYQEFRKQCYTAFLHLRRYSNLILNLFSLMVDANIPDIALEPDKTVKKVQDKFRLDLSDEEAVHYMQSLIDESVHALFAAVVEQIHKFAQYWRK

As to `O=C1CN2CCN(CC2)Cc2cccc(c2)Nc2cc(ccn2)-c2cnc(nc2)CN(CC2CC2)CCN1` [Compound 128], the IC50 at eEF2K is 4.17e-07 M; on EF2K it was 2.88e-07 M. Besides, the remaining activity at 1 µM on PIK3C3 lipid kinase was 74.5%.

For the compound `CC1CN2CCN1Cc1cccc(c1)Nc1cc(ccn1)-c1cnc(nc1)N1CC(O)CC1CCNC(=O)C2` (stereo not shown) [Compound 62], the IC50 is 8.51e-08 M on eEF2K, 1.23e-06 M at PIK3C3 lipid kinase and 5.5e-09 M at EF2K.

As to `CC1CN2CCN1Cc1cccc(c1)Nc1cc(ccn1)-c1cnc(nc1)NCCCNC(=O)C2` (stereo not shown) [Compound 36], the results for the IC50 on eEF2K, at PIK3C3 lipid kinase and on EF2K were 9.77e-07 M, 7.24e-07 M and 1.62e-08 M, respectively.

Consider `N#CC1CC2CCNC(=O)CN3CCN(CC3)Cc3cccc(c3)Nc3cc(ccn3)-c3cnc(nc3)N2C1` (stereo not shown) [Compound 77], for which the IC50 is 3.8e-06 M at eEF2K and 4.27e-08 M at EF2K. At PIK3C3 lipid kinase, this compound displayed a VPS34_1microM_%ofcntrl of 86.17%.

For the compound `O=C1CN2CCN(CC2)Cc2cccc(c2)Nc2cc(ccn2)-c2cnc(nc2)NC(C(=O)O)CCN1` (stereo not shown) [Compound 117], on eEF2K, the “eEF2K_C_PThr56 pIC50” value is reported as below 4.52. At PIK3C3 lipid kinase, this compound had an IC50 of 1.41e-07 M and a VPS34_1microM_%ofcntrl of 16.31%. Also, the IC50 on EF2K was 4.57e-07 M.

As to `O=C1NCCCNc2ncc(cn2)-c2ccnc(c2)Nc2cccc(c2)NC2CCN(CC2)C12CC2` [Compound 100], the IC50 on eEF2K is 2.75e-06 M; on PIK3C3 lipid kinase it was 3.55e-07 M; on EF2K, 6.17e-08 M. At PIK3C3 lipid kinase, the remaining activity at 1 µM stood at 14.9%.

Turning to `O=C1CN2CCN(CC2)Cc2cccc(c2)Nc2cc(ccn2)-c2cnc(nc2)NC(C(=O)O)CCN1` (stereo not shown) [Compound 119], the “eEF2K_C_PThr56 pIC50” value at eEF2K was below 4.52. The compound also had a VPS34_1microM_%ofcntrl at PIK3C3 lipid kinase of 58.90%. In addition, the IC50 at EF2K was 2.75e-07 M.

On to `CC1CN2Cc3cccc(c3)Nc3cc(ccn3)-c3cnc(nc3)NCCCNC(=O)CN1CC2C` (stereo not shown) [Compound 35], for which the IC50 on eEF2K is 2.45e-07 M; at PIK3C3 lipid kinase, 2.95e-07 M; on EF2K, 6.46e-08 M. In addition, the remaining activity at 1 µM on PIK3C3 lipid kinase is 20.9%.

In the case of `COCC1C(=O)NCCCNc2ncc(cn2)-c2ccnc(c2)Nc2cccc(c2)CN2CCN1CC2` (single isomer, unassigned) [Compound 6], the IC50 on eEF2K was 1.12e-06 M; against PIK3C3 lipid kinase, 7.59e-07 M; on EF2K, 4.47e-08 M.

As for `O=C1CN2CCN(CC2)Cc2cccc(c2)Nc2cc(ccn2)-c2ccc(nc2)NCCCN1` [Compound 67], the IC50 at eEF2K was 3.98e-06 M; at EF2K it was around 3.55e-07 M. At PIK3C3 lipid kinase, the remaining activity at 1 µM came to 34%.

Turning to `O=C1CN2CCN(CC2)Cc2cccc(c2)Nc2cc(ccn2)-c2cnc(nc2)N2CC(O)CC2CCN1` (stereo not shown) [Compound 54], the IC50 on eEF2K is 7.94e-07 M; against PIK3C3 lipid kinase, 9.77e-06 M; on EF2K it was 1.1e-08 M.

In the case of `NC(=O)C1CCNC(=O)CN2CCN(CC2)Cc2cccc(c2)Nc2cc(ccn2)-c2cnc(nc2)N1` (stereo not shown) [Compound 121], the IC50 at eEF2K was above 1e-05 M; on PIK3C3 lipid kinase it was 2.63e-06 M; at EF2K, 5.13e-06 M.

In the case of `NS(=O)(=O)NC1CC2CCNC(=O)CN3CCN(CC3)Cc3cccc(c3)Nc3cc(ccn3)-c3cnc(nc3)N2C1` (stereo not shown) [Compound 86], the figures for the IC50 on eEF2K and at EF2K were above 1e-05 M and 3.39e-07 M, respectively. Further, the remaining activity at 1 µM on PIK3C3 lipid kinase is 68%.

For the compound `CC1c2cccc(c2)Nc2cc(ccn2)-c2cnc(nc2)N2CC(O)CC2CCNC(=O)C2(CC2)N2CCN1CC2` (single isomer, unassigned) [Compound 65], the IC50 at eEF2K was 3.8e-07 M; at PIK3C3 lipid kinase, 1.95e-07 M; at EF2K it was 5.62e-09 M.

`O=C1CN2CCN(CC2)Cc2cccc(c2)Nc2cc(ccn2)-c2ccc(nc2)N2CCCC2CCN1` (single isomer, unassigned) [Compound 143]: the IC50 on eEF2K is above 3.02e-05 M; against PIK3C3 lipid kinase, 2.14e-06 M; on EF2K, 1.38e-05 M.

As to `C=CCN1CCNC(=O)CN2CCN(CC2)Cc2cccc(c2)Nc2cc(ccn2)-c2cnc(nc2)C1` [Compound 130], the IC50 on eEF2K is 1.58e-06 M; on EF2K it was 1e-06 M. In addition, the remaining activity at 1 µM at PIK3C3 lipid kinase was determined as 57%.

As to `O=C1NCCCNc2ncc(cn2)-c2ccnc(c2)Nc2cccc(c2)CN2CCN(CC2)C1CO` (single isomer, unassigned) [Compound 3], the IC50 at eEF2K is 5.75e-06 M; on PIK3C3 lipid kinase, 2.29e-07 M; on EF2K it was 1.55e-07 M. The remaining activity at 1 µM at PIK3C3 lipid kinase was determined as 15.3%.

Consider `O=C1CN2CCN(CC2)Cc2cccc(c2)Nc2cc(ccn2)-c2ccc(nc2)CN(CC2CC2)CCN1` [Compound 146], for which the IC50 at eEF2K was 6.61e-07 M; at EF2K, 3.89e-08 M. For the same compound, the remaining activity at 1 µM on PIK3C3 lipid kinase was found to be 54.6%.

In the case of `O=C1CN2C3CCC2CN(Cc2cccc(c2)Nc2cc(ccn2)-c2cnc(nc2)NCCCN1)C3` [Compound 42], the figures for the IC50 at eEF2K, at PIK3C3 lipid kinase and at EF2K were around 2.29e-06 M, 7.08e-07 M and 9.77e-08 M, respectively.

Consider `O=C1CN2CCN(Cc3cccc(c3)Nc3cc(ccn3)-c3cnc(nc3)NCCCN1)C1(CC1)C2` [Compound 27], for which the IC50 on eEF2K is around 1.23e-06 M; on PIK3C3 lipid kinase, 2.57e-08 M; at EF2K, 1.07e-08 M.

Take `O=C1NCCCNc2ncc(cn2)-c2ccnc(c2)Nc2cccc(c2)CN2CCN(CC2)C1CO` (single isomer, unassigned) [Compound 2]: the IC50 was around 2.51e-06 M at eEF2K, 5.5e-07 M against PIK3C3 lipid kinase and 4.79e-08 M on EF2K.

`O=C1NCCCNc2ncc(cn2)-c2ccnc(c2)Nc2cccc(c2)CN2CCN(CC2)C12CC2` [Compound 107]: the IC50 on eEF2K was 3.55e-07 M; on PIK3C3 lipid kinase, 3.31e-07 M; at EF2K it was 6.76e-09 M.

`CC1CN2CCN1Cc1cccc(c1)Nc1cc(ccn1)-c1cnc(nc1)N1CCCC1CCNC(=O)C2` (stereo not shown) [Compound 47]: the IC50 is 4.17e-07 M at eEF2K, 9.12e-06 M at PIK3C3 lipid kinase and 8.51e-09 M on EF2K.

As for `O=C1CN2CCN(CC2)Cc2cccc(c2F)Nc2cc(ccn2)-c2cnc(nc2)NCCCN1` [Compound 1], the IC50 on eEF2K was 3.63e-07 M; at PIK3C3 lipid kinase, 4.9e-08 M; on EF2K it was 1.05e-08 M.

`N#CC1CC2CCNC(=O)CN3CCN(CC3)Cc3cccc(c3)Nc3cc(ccn3)-c3cnc(nc3)N2C1` (stereo not shown) [Compound 78]: the IC50 at eEF2K is 2.24e-06 M; on EF2K, 3.72e-08 M. On PIK3C3 lipid kinase, this compound had a VPS34_1microM_%ofcntrl of 43.17%.

For `CC1CN2CCN1Cc1cccc(c1)Nc1cc(ccn1)-c1cnc(nc1)N1CCCC1CCNC(=O)C2` (stereo not shown) [Compound 48], the IC50 was 3.16e-06 M on eEF2K and 7.94e-08 M at EF2K. Also, the remaining activity at 1 µM at PIK3C3 lipid kinase was 44.1%.

With `CC1CN2CCN1Cc1cccc(c1)Nc1cc(ccn1)-c1cnc(nc1)N1CC(O)CC1CCNC(=O)C2` (stereo not shown) [Compound 61], the IC50 was 4.27e-07 M on eEF2K and 1.26e-08 M on EF2K. At PIK3C3 lipid kinase, this compound came in with a VPS34_1microM_%ofcntrl of 80.70%.

Turning to `[N-]=[N+]=N[C@H]1C[C@H]2CCNC(=O)C3(CC3)N3CCN(CC3)Cc3cccc(c3)Nc3cc(ccn3)-c3cnc(nc3)N2C1` [Compound 83], the IC50 at eEF2K was 6.61e-07 M; at EF2K, 8.71e-09 M. Besides, the remaining activity at 1 µM at PIK3C3 lipid kinase stood at 42.3%.
